Source: patent US7122335B1, “Compounds and methods to enhance rAAV transduction” (priority 1999, dated 2006)
Peptide text beside a SMILES is read from it. * marks the point of attachment. Cbz = O=C(OCc1ccccc1)*

Key:
mouse liver = test: rAAV (AV.Alkphos) gene transfer in mouse liver in vivo, portal vein; parameters: species or system C57B6 mice
Experimental: FIG. 19. […] Recombinant AV.Alkphos (5×10^10 particles) was administered to mouse liver either as virus alone in PBS, virus in combination with 40 μM Z-LLL in PBS, or virus in combination with 200 μM LLnL in PBS. Virus was directly instilled into portal vein of the C57B6 mice. AAV-mediated alkaline phosphatase transgene expression was evaluated by histology staining at 2 and 4 weeks post-infection in frozen tissue sections. The average percentage of the alkphos positive cells in all 6 liver lobes of each individual animal was quantified by NIH image analysis software. The data represents the mean (+/−SEM) of 3 independent mice for each time point in each group.
Recombinant AV.Alkphos (5×10^10 particles) was also administered to mouse liver either as virus alone in PBS, virus in combination with 40 μM Z-LLL in PBS, or virus in combination with 20 μM LLnL in PBS. Virus was directly instilled into portal vein of the C57B6 mice. AAV-mediated alkaline phosphatase transgene expression was evaluated by histology staining at 2 and 4 weeks post infection in frozen tissue sections ([…]).

[1] = test system: polarized human bronchial epithelial cells; assay type: cell-based
Experimental: FIGS. 7A and 7B. Proteasome inhibitors differentially augment rAAV transduction from the apical or basolateral surfaces of airway epithelia. The efficiency and time course of rAAV transduction were evaluated in polarized airway epithelial cultures following infection with rAV.GFPori3 (MOI=10,000 particles/cell) in the presence or absence of 40 μM LLnL. Transgene expression was monitored by indirect fluorescence microscopy at the indicted time points by quantifying the mean number of GFP positive cells per 10× field (mean +/−SEM of 3 independent samples for each time point). The effect of LLnL treatment was compared between matched sets of tissue samples at each time point following infection from the apical (FIG. 7A) or basolateral (FIG. 7B) surfaces. The photomicrographs on the right side of each figure illustrate representative 20× fields for the 3 and 22 day post-infection time points.
FIG. 9. Effects of different agents on AAV transduction from the basal surface of polarized bronchial epithelia. Fully differentiated human bronchial airway epithelia were treated with the indicated agents at the time of AAV infection (MOI=10,000 particles/cell) from the basolateral surface. […] Since most of the tested agents (except for hydroxyurea) were dissolved in DMSO, a vehicle control of 1% (vol/vol) DMSO was also performed to exclude the possibility of a non-specific effect. GFP expression was monitored at 48 hours post-infection by counting the number of GFP positive cells per 10 random 10× fields in the culture dishes. The data represent the mean +/−SEM of three independent infections for each tested chemical.
FIG. 10. The proteasome inhibitor LLnL preferentially induces AAV transduction in ciliated cells. The cell types transduced by AAV were examined by alkaline phosphatase staining 3 days following basolateral infection of polarized epithelial cultures with AV.Alkphos infection (MOI=10,000 particles/cell) in the presence of or absence of 40 μM LLnL. […] 8 μm paraffin sections were used to histologically quantify the types of cells transduced. Three classifications were used, ciliated cells (with alkphos expression localized to the apical membrane and cilia), basal cells residing in the lower half of the epithelium with no contact with the lumen, and non-ciliated, columnar cells. Panel C (without LLnL) and D (with LLnL) show representative neutral red counter-stained cross-sections for each condition. The numbers of alkphos stained cells/2000 epithelial cells for the various cell types transduced by AAV are presented in panel E (mean +/−SEM from three independent Millicell insert samples).
FIGS. 11A and 11B. Optimization of LLnL-enhanced transduction in polarized bronchial epithelia. Differentiated transwell cultures were infected with AV.GFP3ori (10,000 particles/cell) from either the basolateral (FIG. 11A) or the apical (FIG. 11B) surface with the indicated treatments involving LLnL and/or EGTA. All infections were carried out for 24 hours and GFP transgene expression was monitored by indirect fluorescent microscopy at the indicated times. Data represent the mean (+/−SEM, N=6) for each experimental condition. Experiments were performed in triplicate on transwells derived from samples obtained from two different patients. […]

[2] = test system: polarized human bronchial epithelia; test: S35-labeled rAAV binding/entry assay in polarized bronchial epithelia; assay type: cell-based
Experimental: FIGS. 12A and 12B. Binding and uptake of S^35-labeled AV.GFP3ori in fully differentiated human bronchial epithelia. The ability of polarized bronchial epithelia to bind and internalize virus from the apical or the basolateral surfaces was quantified using S^35-labeled rAAV. The binding assay was performed after incubation with virus at 4° C. for 1 hour, followed by repeated washing in PBS. The combined bound and internalized virus was quantified following incubation with virus at 4° C. for 1 hour, and subsequent incubation at 37° C. for 2 hours and 24 hours. Non-specific background binding of radiolabeled virus was determined in parallel studies on collagen coated empty chambers not seeded with bronchial cells. Background counts (averaging 15.67+/−5.17 cpm/well) were subtracted from experimental sample counts prior to analysis. Data in the right side of each figure is presented as the net cpms of bound/internalized virus (raw counts minus background counts of empty transwells). The results represent the mean (+/−SEM) of 6 independent transwells for each condition. Experiments were performed in triplicate from two independent tissue samples. The significance of the differences between each pair of samples (with or without LLnL) was evaluated using the Student's t-test and p-values are provided in brackets above the data for each condition. To correlate uptake of radioactive virus with the functional expression the rAAV encoded transgene, GFP expression from the same set of samples was quantified at 24 hour post-infection by indirect fluorescent microscopy. […]
Viral binding/entry assays and in situ localization of viral particles. […] Combined binding/entry of rAAV into differentiated airway epithelia was measured under the same conditions, except that the cultures were incubated at 37° C. for an additional 2–24 hours before they were harvested. […] After washing three times in PBS, cells were lysed in situ by the addition of 5 ml of liquid scintillation cocktail at room temperature for 5 minutes, and the radioactivity was quantitated in a scintillation counter.

## CC(C)C[C@@H](C=O)NC(=O)[C@H](CC(C)C)NC(=O)[C@H](CC(C)C)NC(=O)OCc1ccccc1 [Z-LLL, N-carbobenzoxyl-L-leucinyl-L-leucinyl-L-leucinal] (Cbz-Leu-Leu-Leu-aldehyde)
Mouse liver; 40 μM Z-LLL co-administered, 2 and 4 weeks
  AAV-mediated gene transfer in mouse liver, in words: enhances AAV-mediated gene transfer
Mouse liver; 1 month post-infection
  increase in rAAV transduction in the liver: 7 fold

## N-acetyl-L-leucinyl-L-leucinal-L-norleucinal [LLnL]
[1]; LLnL and rAAV co-administered to the mucosal surface
  time of peak augmentation in AAV transduction: 22 days post-infection
[1]; apical infection with LLnL, by 30 days
  maximal level of transgene expression relative to basal infection: one eighth
[1]; basolateral (serosal) infection MOI 10,000, agent at time of infection, GFP at 48 hours/2 days, camptothecin 0.1 μM, etoposide 10 μM, hydroxyurea 40 mM, genistein 50 μM, LLnL 40 μM
  enhancement in rAAV transduction from the basolateral surface: greater than 200 fold
[1]; basolateral infection, LLnL once every three days
  effect of repeated LLnL administration on transgene expression: increased length of peak transgene expression
[1]; continual exposure to 40 μM LLnL in basal medium after basolateral infection
  toxicity to cultured airway cells: toxic to cells and ablated transgene expression by 10 days
[1]; rAAV infection from the serosal surface in the presence of LLnL
  time of transient peak in gene expression: 72 hours post-infection
[1]; serosal application of AV.Alkphos, 40 μM LLnL, 3 days
  AV.Alkphos transduction: dramatic increase in AV.Alkphos transduction
[2]; 2 hour infection period at 37° C.
  uptake of S35 labeled rAAV: not altered
[2]; 24 hours post-infection, either surface infected
  amount of intracellular radioactivity: very significant decrease
[2]; S35 labeled rAAV, with or without LLnL
  4° C. rAAV binding: no significant effect
